Experimental data taken from patent US10364256B2 (GlaxoSmithKline Intellectual Property Development Limited, priority 2015, dated 2019).

Assays:
[1] = biological target: T1, Keap1 Kelch domain (321-609) / TAMRA-labeled 16mer NRF2 peptide (ETGE motif) (Homo sapiens, UniProt Q14145); test: NRF2-Keap1 FP Assay (Keap1 Kelch fluorescence polarization); assay type: binding; conditions: 20 nM Keap1 (321-609), 8 nM Tamra labeled peptide
T1 construct: the Kelch domain (321-609) of Keap1 is used
Summary of the method: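 Compound dilutions (3-fold) were incubated 1 hr at room temperature with 20 nM Keap1 Kelch (321-609) and 8 nM TAMRA-labeled ETGE 16mer peptide. Buffer was 50 mM Tris pH 8.0, 100 mM NaCl, 5 mM MgCl2, 1 mM DTT, 2 mM CHAPS, 0.005% BSA. Fluorescence polarization (mP) was normalized to controls and fitted with a four-parameter equation to give pIC50.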

[2] = biological target: T2, full length Keap1 protein / full length NRF2 protein (Homo sapiens, UniProt Q14145); test: NRF2-Keap1 TR-FRET Assay; assay type: binding; conditions: 25 nM Keap1-FlagHis and 50 nM biotin-NRF2 added
T2 construct: full length NRF2 protein and full length Keap1 protein (Keap1 exists a dimer) are used; His
Summary of the method: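 Displacement of biotinylated full-length NRF2 from full-length Keap1 read by Eu/APC TR-FRET (665/615 nm) after 1 h detection at RT. Compound, 3-fold series, first incubated with Keap1 at 37 °C for 2.25 h, NRF2 then added at 4 °C for 1.25 h; pIC50 by four-parameter equation.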

T1 sequence (Q14145 321-609): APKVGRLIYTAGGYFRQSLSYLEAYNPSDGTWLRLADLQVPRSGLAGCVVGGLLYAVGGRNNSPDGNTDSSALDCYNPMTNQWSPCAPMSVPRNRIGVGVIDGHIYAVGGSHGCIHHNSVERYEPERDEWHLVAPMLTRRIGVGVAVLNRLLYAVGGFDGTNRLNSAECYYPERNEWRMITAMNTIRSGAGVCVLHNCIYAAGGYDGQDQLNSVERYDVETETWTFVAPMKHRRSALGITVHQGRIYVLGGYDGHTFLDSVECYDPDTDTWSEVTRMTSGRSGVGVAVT
T2 sequence (Q14145 whole entry): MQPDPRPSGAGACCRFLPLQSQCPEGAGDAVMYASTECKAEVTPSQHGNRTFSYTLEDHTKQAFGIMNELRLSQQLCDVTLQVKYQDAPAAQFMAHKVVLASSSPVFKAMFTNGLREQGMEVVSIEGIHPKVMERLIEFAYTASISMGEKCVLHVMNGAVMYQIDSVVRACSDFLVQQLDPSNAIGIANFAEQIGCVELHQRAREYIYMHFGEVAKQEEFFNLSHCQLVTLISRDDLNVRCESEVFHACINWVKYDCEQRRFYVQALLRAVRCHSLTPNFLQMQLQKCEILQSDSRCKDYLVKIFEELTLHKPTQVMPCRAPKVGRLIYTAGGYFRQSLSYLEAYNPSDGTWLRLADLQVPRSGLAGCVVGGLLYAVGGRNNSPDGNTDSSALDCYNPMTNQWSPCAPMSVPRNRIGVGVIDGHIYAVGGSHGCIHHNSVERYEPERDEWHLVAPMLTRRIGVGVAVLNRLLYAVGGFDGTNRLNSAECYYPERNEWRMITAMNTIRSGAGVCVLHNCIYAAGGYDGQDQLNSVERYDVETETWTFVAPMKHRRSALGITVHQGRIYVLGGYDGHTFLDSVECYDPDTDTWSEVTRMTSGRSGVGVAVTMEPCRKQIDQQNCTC

| SMILES | IC50 [1] | IC50 [2] |
| --- | --- | --- |
| Cn1cc([C@@H]2C[C@H]2c2c(C(=O)O)cnn2-c2cccc(-c3cccc(OCCC4CCCCC4)c3)c2)nn1 (racemic) [Example 245, 1-(3′-(2-cyclohexylethoxy)-[1,1′-biphenyl]-3-yl)-5-(trans-2-(1-methyl-1H-1,2,3-triazol-4-yl)cyclopropyl)-1H-pyrazole-4-carboxylic Acid] | 10 to 100 nM | 100 to 1000 nM |
| Cn1cc([C@@H]2C[C@H]2c2c(C(=O)O)cnn2-c2cccc(-c3cncc(OCC4CCCCC4)c3)c2)nn1 (racemic) [Example 246, 1-(3-(5-(Cyclohexylmethoxy)pyridin-3-yl)phenyl)-5-(trans-2-(1-methyl-1H-1,2,3-triazol-4-yl)cyclopropyl)-1H-pyrazole-4-carboxylic Acid] | 100 to 1000 nM | 1000 to 10000 nM |
| CCC[C@@H]1CCCCN1C(=O)c1cccc(-c2cc(C)cc(-n3ncc(C(=O)O)c3[C@@H]3C[C@H]3c3cn(C)nn3)c2)c1 (single isomer, unassigned) [Example 155] | 10 to 100 nM | 10 to 100 nM |
| CC(Oc1cccc(-c2cccc(-n3ncc(C(=O)O)c3[C@H]3C[C@@H]3c3cn(C)nn3)c2)c1)C1CCCCC1 (single isomer, unassigned) [Example 191] | 100 to 1000 nM | 100 to 1000 nM |
| Cn1cc([C@H]2C[C@@H]2c2c(C(=O)O)cnn2-c2cccc(-c3cccc(-n4ncc5c4C(C)(C)CC5)c3)c2)nn1 (stereo in doubt) [Example 208, 1-(3′-(6,6-Dimethyl-5,6-dihydrocyclopenta[c]pyrazol-1(4H)-yl)-[1,1′-biphenyl]-3-yl)-5-((1S,2S)-2-(1-methyl-1H-1,2,3-triazol-4-yl)cyclopropyl)-1H-pyrazole-4-carboxylic Acid] | 10 to 100 nM | 10 to 100 nM |
| O=C(O)c1cnn(-c2cccc(-c3cccc(C(=O)N(CC4CCCC4)CC4CC4)c3F)c2)c1C1CC1 [Example 14, 1-(3-{3-[(Cyclopentylmethyl)(cyclopropylmethyl)carbamoyl]-2-fluorophenyl}phenyl)-5-cyclopropyl-1H-pyrazole-4-carboxylic Acid] | 10 to 100 nM | 100 to 1000 nM |
| CCCC1CCCCN1C(=O)c1cccc(-c2cccc(-n3ncc(C(=O)O)c3C3CC3)c2)c1F (stereo not shown) [Example 17, 5-Cyclopropyl-1-{3-[2-fluoro-3-(2-propylpiperidine-1-carbonyl)phenyl]phenyl}-1H-pyrazole-4-carboxylic Acid] | 10 to 100 nM | 100 to 1000 nM |
| C[C@@H]1CCC[C@H](C)N1C(=O)c1cccc(-c2cccc(-n3ncc(C(=O)O)c3C3CC3)c2)c1F [Example 21, 5-Cyclopropyl-1-(3-{3-[(2R,6S)-2,6-dimethylpiperidine-1-carbonyl]-2-fluorophenyl}phenyl)-1H-pyrazole-4-carboxylic Acid] | 10 to 100 nM | 100 to 1000 nM |
| CCCC1CCCCN1C(=O)c1cccc(-c2cccc(-n3ncc(C(=O)O)c3C3CC3c3cccnn3)c2)c1 (stereo not shown) [Example 41, 1-[3′-(2-Propyl-piperidine-1-carbonyl)-biphenyl-3-yl]-5-(2-pyridazin-3-yl-cyclopropyl)-1H-pyrazole-4-carboxylic Acid] | 10 to 100 nM | 10 to 100 nM |
| CCCC1CCCCN1C(=O)c1cccc(-c2cccc(-n3ncc(C(=O)O)c3C3CC3c3cn(C)nn3)c2)c1 (stereo not shown) [Example 42, 5-[2-(1-methyl-1H-1,2,3-triazol-4-yl)cyclopropyl]-1-{3-[3-(2-propylpiperidine-1-carbonyl)phenyl]phenyl}-1H-pyrazole-4-carboxylic Acid] | 10 to 100 nM | 10 to 100 nM |
| CCC[C@@H]1CCCCN1C(=O)c1cccc(-c2cccc(-n3ncc(C(=O)O)c3[C@H]3C[C@@H]3c3cn(C)nn3)c2)c1 [Example 51g, 5-[(1S,2S)-2-(1-methyl-1H-1,2,3-triazol-4-yl)cyclopropyl]-1-(3-{3-[(2R)-2-propylpiperidine-1-carbonyl]phenyl}phenyl)-1H-pyrazole-4-carboxylic Acid] | 100 to 1000 nM | 1000 to 10000 nM |
